Laboratory results reported in US8716326B2, “Isoindolinone derivatives, preparation method thereof and a pharmaceutical composition comprising same” (Korea Research Institute of Chemical Technology, priority 2009, dated 2014).

How the values were obtained:
Runx2 = Runx2 activity, 6xOSE2-Luc luciferase reporter in transfected C2C12 cells; format: cell-based, Mouse; conditions: Mus musculus, 24 hrs, read-out: luciferase activity relative to control set as 1
Procedure, shortened: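 Compound exposure of 24 h at 2.5, 5.0, 10 and 20 μM, in 5% FBS DMEM, was applied to transfected C2C12 cells with an OSE2 hexamer-driven luciferase construct reporting Runx2 activity. Read-out: dual-luciferase signal in cell lysates, normalised to equal-volume DMSO control (=1).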

mice calvarias = experiment: Mice calvarias loss inhibition, bone loss induced by interleukin-1 in vivo; conditions: IL-1 collagen sponge, 0.2 mg per mouse intraperitoneally, 7 days, vs vehicle
Procedure: Specifically, 5 to 7 ml of collagen (Cellmatrix type I-A; Wako co., Japan, Cat. No. 637-00653) was poured into petri dish (60×15 mm), and lyophlilized. The lyophlilized collagen sponge was made to the desired size which is appropriate to be implanted, and in order to induce local bone loss of mice, interleukin-1 (Peprotech; London, GB) was diluted with phosphate-buffered-saline solution to 2 μg per one mouse to be treated onto collagen sponge. The collagen sponge treated with interleukin-1 was contacted to the surface of mice carvarias through mice scalp incision, was implanted to 5 mice (5-week-male, ICR strain) in the test group and the control group, respectively, and was sutured. 7 days later, the mice were sacrificed to obtain calvarias. The test group was intraperitoneally injected with the dose of 0.2 mg of the compound obtained in Example 8 per one mouse from the next day of surgery to the day before the sacrifice. The control group was intraperitoneally injected with 100 μl of DMSO. After 7 days, the mice were sacrificed, and the extracted calvarias were washed 3-4 times with phosphate-buffered-saline solution and fixed in 4% paraformaldehyde for 24 hrs. Micro-computed tomography scan (SMX-90CT; Shimadzu, Japan) was performed for the fixed mice calvarias and 3-dimensional image thereof was obtained.
Further, bone mineral content (BMC) was measured by using TRI 3D-BON (RATOC system Engineering Co., Tokyo, Japan) based on the 3-dimensional image (see Volume Graphics, VG studio Max 1.2.1).
Histological studies were conducted in order to investigate the number of osteoclastic cells directly relating to bone loss. Specifically, the calvarias were decalcificated (solution was replaced every 2-3 days) with 12% EDTA (pH 7.2-7.4) for 14 days and embedded in paraffin. TRAP staining (Sigma-Aldrich) was performed on the embedded whole calvarias.
In addition, the whole area of osteoclast which is red-stained, that is, TRAP-positive was shown in graph by using image J program.
The procedure of the Experimental Example 3 was repeated except for using the compound obtained in Example 94 instead of the compound obtained in Example 8, to examine the effect on mice calvarias loss inhibition.
Histological studies were conducted in order to investigate the number of osteoclastic cells directly relating to bone loss. Specifically, the calvarias were decalcificated (solution was replaced every 2-3 days) with 12% EDTA (pH 7.2-7.4) for 14 days and embedded in paraffin.
H-E (Hematotoxin-eosin) and TRAP staining (Sigma-Aldrich) were performed on the embedded whole calvarias. The results are given in FIGS. 4b and 4c, respectively. In addition, the whole area of osteoclast of the test and control group was shown in graph by using image J program.

rats calvarias = experiment: Bone formation in rats calvarias loss site in vivo; conditions: 8 mm calvarias hole, vs control
Procedure: To investigate the effect of the amide compound according to the present invention on bone formation, bone formation ability of the said compound in the rats calvarias loss site was examined in vivo by using the compounds obtained in Example 8 and 27.
Specifically, the hole of the diameter of 8 mm was made in calavarias of rats by using trephine bur, and the collagen sponge prepared in Experimental Example 3 treated with 0.2 mg of the compound obtained in Example 8 in 15 μl of DMSO was placed at the site of loss. As a control group, the collagen sponge treated with only 100 μl of DMSO was treated at the site of loss. After 6 days from the suture of the calvarias scalp, the rats were sacrificed to obtain calvarias. Micro-computed tomography scan (SMX-90CT; Shimadzu, Japan) was performed and 3-dimensional image thereof was obtained.
Further, bone mineral content (BMC) of the test and control group was measured by using TRI 3D-BON (RATOC system Engineering Co., Tokyo, JP) based on the 3-dimensional image (see, Volume Graphics, VG studio Max 1.2.1). […]
Further, bone mineral content (BMC) of the test and control group was measured by using TRI 3D-BON (RATOC system Engineering Co., Tokyo, JP) based on the 3-dimensional image.

| Compound | fold induction at 2.5 µM (Runx2) | fold induction at 5 µM (Runx2) | fold induction at 10 µM (Runx2) | fold induction at 20 µM (Runx2) | bone loss in calvarias (micro-computed tomography) (mice calvarias) | osteoclast (TRAP-positive area) (mice calvarias) | whole bone mineral content (BMC) (mice calvarias) | BMC (bone content) (rats calvarias; collagen sponge with 0.2 mg compound) | BMC (bone content) (rats calvarias; collagen sponge with 0.2 mg or 0.5 mg compound) |
| --- | --- | --- | --- | --- | --- | --- | --- | --- | --- |
| COc1cc2c(c(-c3cncnc3)c1OC)CN(Cc1ccc(C(=O)Nc3ccccc3N)cc1)C2=O [Example 8, N-(2-aminophenyl)-4-((5,6-dimethoxy-1-oxo-4-(pyrimidin-5-yl)isoindolin-2-yl)methyl)benzamide] | 28.5 | 33.4 | 36 | 30.1 | suppressed | remarkably reduced | increased | unexpectedly increased |  |
| Cc1cc(C(=O)NCCCCCC(=O)NO)ccc1-c1ccccc1 [Example 94, N-(5-(hydroxycarbamoyl)pentyl)-3-methyl-4-phenylbenzamide] | 1.6 | 3.4 | 7.5 | 10.7 | suppressed | remarkably reduced |  |  | unexpectedly increased |
| COc1ccc(-c2cccc3c2CN(Cc2ccc(C(=O)Nc4ccccc4N)cc2)C3=O)cn1 [Example 22, N-(2-aminophenyl)-4-((4-(6-methoxypyridin-3-yl)-1-oxoisoindolin-2-yl)methyl)benzamide] | 12.4 | 9.5 | 10.2 | 10.3 |  |  |  |  |  |
| Cc1c(C(=O)NCc2ccc(C(=O)Nc3ccccc3N)cc2)cccc1-c1cccnc1 [Example 71, N-(2-aminophenyl)-4-((2-methyl-3-(3-pyridinyl)benzamido)methyl)benzamide] | 18.7 | 34.8 | 36.5 | 32.7 |  |  |  |  |  |
